Activity calls are given as the source filed them. The calls are words filed in the database; no cut-off is given here.
Tests used:
Carbonic anhydrase 12 [1] = target: T1, Carbonic anhydrase 12 (Homo sapiens, UniProt O43570); assay: Binding affinity to human recombinant carbonic anhydrase 12 expressed in Escherichia coli Rosetta (DE3) assessed as protein stability at pH 6 by fluorescent thermal shift assay
Carbonic anhydrase 12 [2] = target: T1, Carbonic anhydrase 12; assay: Binding affinity to human recombinant carbonic anhydrase 12 expressed in Escherichia coli Rosetta (DE3) assessed as protein stability at pH 10 by fluorescent thermal shift assay
Carbonic anhydrase 12 [3] = target: T1, Carbonic anhydrase 12; assay: Binding affinity to human recombinant carbonic anhydrase 12 expressed in Escherichia coli Rosetta (DE3) assessed as protein stability at pH 5 by fluorescent thermal shift assay
Carbonic anhydrase 12 [4] = target: T1, Carbonic anhydrase 12; assay: Inhibition of human carbonic anhydrase 12

T1 sequence (O43570 whole entry): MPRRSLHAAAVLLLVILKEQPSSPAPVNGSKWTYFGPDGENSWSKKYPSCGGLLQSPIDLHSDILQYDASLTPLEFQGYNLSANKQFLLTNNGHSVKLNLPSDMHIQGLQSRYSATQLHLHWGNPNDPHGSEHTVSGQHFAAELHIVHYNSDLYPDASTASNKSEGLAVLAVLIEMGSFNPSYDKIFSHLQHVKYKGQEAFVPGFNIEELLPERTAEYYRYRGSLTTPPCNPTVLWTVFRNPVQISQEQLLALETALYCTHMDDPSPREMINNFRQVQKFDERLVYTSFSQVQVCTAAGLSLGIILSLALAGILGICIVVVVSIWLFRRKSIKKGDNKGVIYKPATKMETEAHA

| SMILES | Activity (Carbonic anhydrase 12 [1]) | Activity (Carbonic anhydrase 12 [2]) | Activity (Carbonic anhydrase 12 [3]) | Ki (Carbonic anhydrase 12 [4]) [pM] |
| --- | --- | --- | --- | --- |
| CCOc1ccc2nc(S(N)(=O)=O)sc2c1 | Active | inactive | inactive | – |
| CCc1ccc2ccc(=O)oc2c1C(C)=O | – | – | – | 1000 |
| NS(=O)(=O)C(F)(F)F | Active | inactive | inactive | – |
| CCCc1ccc2ccc(=O)oc2c1C(C)=O | – | – | – | 980 |
